Data published in patent US10555987B2, “GHRH agonists for the treatment of ischemic disorders” (UNIVERSITY OF MIAMI, priority 2012, dated 2020).
Non-standard residues stand in square brackets, D forms with d. Residues, ends and D or L forms follow the SMILES beside them. *: point of attachment. Phe(F5) = N[C@@H](Cc1c(F)c(F)c(F)c(F)c1F)C(=O)O; Desaminotyrosyl = O=C(CCc1ccc(O)cc1)*; NMeY = CN[C@@H](Cc1ccc(O)cc1)C(=O)O; Agmatine = N=C(N)NCCCCN*; Nle = CCCC[C@H](N)C(=O)O; Orn = NCCC[C@H](N)C(=O)O; Abu = CC[C@H](N)C(=O)O; GABA = NCCCC(=O)O

Assays:
[1] = system: myocardial infarction (Fisher-344 rats); experiment: Echocardiography in rat myocardial infarction model, treatment from 4 weeks post-MI (Example 13); assay type: in vivo; settings: mean ± SEM; for EF (4 Weeks): 50 μg/kg s.c. twice daily for 4 weeks; for EF (Baseline): ejection fraction at baseline
Procedure: Myocardial infarction (MI) was induced by permanent ligation of the left coronary artery in female 6-month-old Fisher-344 rats. Animals were randomly assigned to receive placebo (DMSO+propylene glycol) or one of the GHRH-agonists (JI-38, MR-356/P-20356, MR-409/P-27409, all 50 μg/kg), starting 4 weeks post-MI. All treatment was given subcutaneously twice daily for 4 weeks.
Echocardiographic measurements were obtained at baseline, 2 days, 1, 2 and 4 weeks. Echocardiographic assessments were performed in anesthetized rats (2% isoflurane inhalation) using a Vevo-770 echocardiogram (Visual Sonics Inc., Toronto, Ontario, Canada) equipped with a 17.5-MHz transducer. Cardiac dimensions: LV end diastolic (LVEDD), end systolic (LVESD) diameters and fractional shortening (FS) were recorded from M-mode images using averaged measurements from 3 to 5 consecutive cardiac cycles according to the American Society of Echocardiography. Ejection fraction (EF) was calculated from bi-dimensional long-axis parasternal views taken through the infarcted area. All images were analyzed using Vevo 770 3.0.0 software (Visual Sonics Inc., Toronto, Ontario, Canada).

[2] = system: GH release; experiment: GH releasing potency in vivo, intravenous administration (Example 14, Table 13); parameters: species or system rat; settings: i.v.; for Serum GH level at selected time after injection (ng/ml), 0 min / Serum GH level at selected time after injection (ng/ml), 5 min / Serum GH level at selected time after injection (ng/ml), 15 min: dose 1 μg/kg, mean ± SEM
Method in brief: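 Potency is expressed relative to GHRH(1-29)NH2 and JI-38 (each = 1), via equivalent GHRH(1-29)NH2 dose read from a standard curve. Peptides in 5% mannitol given i.v. or s.c. to anaesthetised male Sprague-Dawley rats (200-250 g); serum GH measured by ELISA at selected times.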

[3] = molecular target: T1, GHRH receptor (Homo sapiens, UniProt Q02643); experiment: Receptor binding in vitro, 125I-labeled [His1,Nle27]-hGHRH(1-32)NH2, membrane receptors of human anterior pituitary cells (Table 14); settings: for Relative affinity (Binding potency) compared to JI-38: JI-38 = 1; for Relative affinity (Binding potency) compared to hGHRH(1-29): hGHRH(1-29)NH2 = 1
T1 sequence (Q02643 23-423): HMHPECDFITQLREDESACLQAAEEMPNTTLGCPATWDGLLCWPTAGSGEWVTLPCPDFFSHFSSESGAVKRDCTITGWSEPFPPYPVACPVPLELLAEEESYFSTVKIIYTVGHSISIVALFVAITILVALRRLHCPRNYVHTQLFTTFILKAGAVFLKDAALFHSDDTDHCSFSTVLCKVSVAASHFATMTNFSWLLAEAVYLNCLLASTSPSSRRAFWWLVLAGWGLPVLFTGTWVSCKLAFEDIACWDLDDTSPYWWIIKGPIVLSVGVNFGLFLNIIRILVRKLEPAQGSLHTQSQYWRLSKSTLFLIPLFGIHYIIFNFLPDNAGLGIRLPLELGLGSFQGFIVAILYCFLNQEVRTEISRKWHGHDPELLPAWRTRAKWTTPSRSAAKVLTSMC
Text: Normal human pituitary was purchased from the National Hormone and Peptide Program (UCLA Medical Center, Torrance, Calif.).

[4] = system: myocardial infarction (Fisher-344 rats); experiment: Serial echocardiography after MI, compared to JI-38 (Example 15, Table 15); assay type: in vivo, rat; parameters: key to LVEDD: Left Ventricular End Diastolic Diameter / LVESD: Left Ventricular End Systolic Diameter / VD: Ventricular Diastole / VS: Ventricular Systole / EF: Ejection Fraction / FS: Fraction Shortening: ↓: downward arrow denotes lower than JI-38; ↑: upward arrow denotes greater than JI-38; =denotes same as JI-38; ⬇⬇: double arrow denotes greater effect; ⬆⬆: double arrow denotes greater effect; settings: for EF: Ejection Fraction / FS: Fraction Shortening / LVEDD: Left Ventricular End Diastolic Diameter / LVESD: Left Ventricular End Systolic Diameter / VD: Ventricular Diastole / VS: Ventricular Systole: in comparison to JI-38
Method in brief: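 Female 6-month-old Fisher-344 rats with permanent left coronary artery ligation received placebo, JI-38 or GHRH agonists subcutaneously twice daily from 2 h post-surgery (10 per group). Under 2% isoflurane, M-mode LVEDD, LVESD and FS plus long-axis EF were measured at baseline, 2 days, 1, 2 and 4 weeks.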

SMILES	EF (4 Weeks) [1] [%]	EF (Baseline) [1] [%]	Relative potency, 5 min ([2]; 5 min, JI-38 = 1)	Relative potency, 15 min ([2]; 15 min, JI-38 = 1)	Serum GH level at selected time after injection (ng/ml), 0 min [2] [ng/mL]	Serum GH level at selected time after injection (ng/ml), 5 min ([2]; 5 min) [ng/mL]	Serum GH level at selected time after injection (ng/ml), 15 min ([2]; 15 min) [ng/mL]	Relative affinity (Binding potency) compared to JI-38 [3]	Relative affinity (Binding potency) compared to hGHRH(1-29) [3]	GH-releasing potency after intravenous administration (in words) [2]	EF: Ejection Fraction [4]	FS: Fraction Shortening [4]	LVEDD: Left Ventricular End Diastolic Diameter [4]	LVESD: Left Ventricular End Systolic Diameter [4]	VD: Ventricular Diastole [4]	VS: Ventricular Systole [4]	cardiac dimensions (LVEDD and LVESD) ([4]; after MI)	cardiac performance (EF and FS) ([4]; after MI)
CCCC[C@H](NC(=O)[C@@H](NC(=O)[C@H](CC(=O)O)NC(=O)[C@H](CCC(N)=O)NC(=O)[C@H](CC(C)C)NC(=O)[C@H](CC(C)C)NC(=O)[C@H](CCCN)NC(=O)[C@H](CCCNC(=N)N)NC(=O)[C@H](C)NC(=O)[C@H](CO)NC(=O)[C@H](CC(C)C)NC(=O)[C@H](CCC(N)=O)NC(=O)[C@H](CC)NC(=O)[C@H](CC(C)C)NC(=O)[C@@H](NC(=O)[C@H](CCCN)NC(=O)[C@H](CCCNC(=N)N)NC(=O)[C@H](Cc1ccc(O)cc1)NC(=O)[C@H](CO)NC(=O)[C@H](CCC(N)=O)NC(=O)[C@@H](NC(=O)[C@H](Cc1ccccc1)NC(=O)[C@@H](NC(=O)[C@H](C)NC(=O)[C@H](CC(=O)O)NC(=O)[C@H](C)NC(=O)CCc1ccc(O)cc1)[C@@H](C)CC)[C@@H](C)O)C(C)C)[C@@H](C)CC)C(=O)N[C@@H](CC(=O)O)C(=O)NCCCCNC(=N)N [JI-38, [Dat^1, Gln^8, Orn^12,21, Abu^15, Nle^27, Asp^28, Agm^29]hGHRH(1-29)NH2, reference compound] (Desaminotyrosyl-ADAIFTQSYR[Orn]VL[Abu]QLSAR[Orn]LLQDI[Nle]D-Agmatine)	47 ± 2.4	88 ± 1.2	1	1	48.0 ± 10.4	538 ± 58.3	198 ± 18.1	1.00	2.79									
CCCC[C@H](NC(=O)[C@@H](NC(=O)[C@H](CC(=O)O)NC(=O)[C@H](CCC(N)=O)NC(=O)[C@H](CC(C)C)NC(=O)[C@H](CC(C)C)NC(=O)[C@H](CCCN)NC(=O)[C@H](CCCNC(=N)N)NC(=O)[C@H](C)NC(=O)[C@H](CO)NC(=O)[C@H](CC(C)C)NC(=O)[C@H](CCC(N)=O)NC(=O)[C@H](CC)NC(=O)[C@H](CC(C)C)NC(=O)[C@@H](NC(=O)[C@H](CCCN)NC(=O)[C@H](CCCNC(=N)N)NC(=O)[C@H](Cc1ccc(O)cc1)NC(=O)[C@H](CO)NC(=O)[C@H](CC(N)=O)NC(=O)[C@@H](NC(=O)[C@H](Cc1c(F)c(F)c(F)c(F)c1F)NC(=O)[C@@H](NC(=O)[C@H](C)NC(=O)[C@H](CC(=O)O)NC(=O)[C@@H](C)NC(=O)CCc1ccc(O)cc1)[C@@H](C)CC)[C@@H](C)O)C(C)C)[C@@H](C)CC)C(=O)N[C@@H](CO)C(=O)N[C@@H](CCCNC(=N)N)C(=O)NCCCC(N)=O [Peptide P-25502, [Dat^1, D-Ala^2, Fpa5^6, Orn^12, Abu^15, Orn^21, Nle^27, Gab^30]hGHRH(1-30)NH2] (Desaminotyrosyl-[dA]DAI[Phe(F5)]TNSYR[Orn]VL[Abu]QLSAR[Orn]LLQDI[Nle]SR[GABA]-NH2)					59.9 ± 15.9	1253 ± 185	575 ± 20.9	1.27	3.54	highest potency for GH release	=	=	=	=	↑	↑		
CCCC[C@H](NC(=O)[C@@H](NC(=O)[C@H](CC(=O)O)NC(=O)[C@H](CCC(N)=O)NC(=O)[C@H](CC(C)C)NC(=O)[C@H](CC(C)C)NC(=O)[C@H](CCCN)NC(=O)[C@H](CCCNC(=N)N)NC(=O)[C@H](C)NC(=O)[C@H](CO)NC(=O)[C@H](CC(C)C)NC(=O)[C@H](CCC(N)=O)NC(=O)[C@H](CC)NC(=O)[C@H](CC(C)C)NC(=O)[C@@H](NC(=O)[C@H](CCCN)NC(=O)[C@H](CCCNC(=N)N)NC(=O)[C@H](Cc1ccc(O)cc1)NC(=O)[C@H](CO)NC(=O)[C@H](CC(N)=O)NC(=O)[C@@H](NC(=O)[C@H](Cc1ccccc1)NC(=O)[C@@H](NC(=O)[C@H](C)NC(=O)[C@H](CC(=O)O)NC(=O)[C@@H](C)NC(=O)[C@H](Cc1ccc(O)cc1)NC)[C@@H](C)CC)[C@@H](C)O)C(C)C)[C@@H](C)CC)C(=O)N[C@@H](CC(=O)O)C(=O)N[C@@H](CCCNC(=N)N)C(=O)NC [Peptide P-27409, [N—Me-Tyr^1, D-Ala^2, Orn^12, Abu^15, Orn^21, Nle^27, Asp^28]hGHRH(1-29)NH—CH3] (H-[NMeY][dA]DAIFTNSYR[Orn]VL[Abu]QLSAR[Orn]LLQDI[Nle]DR-NHMe)	48 ± 2.8	90 ± 0.8						2.71	7.57		⬆⬆	⬆⬆	⬇⬇	⬇⬇	=	=	reduced cardiac dimensions	substantial improvement on cardiac performance
